Here are results for 5 compounds from patent US10357496B2, “Methods, formulations, and kits for rapidly repleting folate levels in women” (SOUTH ALABAMA MEDICAL SCIENCE FOUNDATION, priority 2011, dated 2019).

The test system of data set [1] is mice homozygous for loss of folate binding protein 1. As to conditions: 10.75 to 43.0 micromoles/kg/day; untreated mice died in utero; optimal between days E7-E9; cited from earlier work.
For data set [2] the following is noted: cited from earlier work.
The procedure of data set [3]: A study of the rate of increase of serum folate with 5-methyl-6S-tetrahydrofolate (6S-5-MTHF) was performed with women of child bearing age (final range: 20 to 44 years old). Volunteers were screened for fasting serum folate, and the lower quintile enrolled (n=21 participants). On the first day, a baseline fasting blood sample was obtained using a serum separator tube, and then a 7.5 mg (16.3 micromoles) oral dose of 6S-5-MTHF along with 0.5 mg of cyanocobalamin was administered. After 24 hours (day 2) and again after 48 hours (day 3) fasting blood samples were withdrawn, and the same doses of 6S-5-MTHF and vitamin B12 were administered. At 72 hours (day 4) and 96 hours (day 5), further blood samples were withdrawn, but without administration of vitamins for the first 10 Subjects.
These subjects returned on days 12 and 19 to provide serum samples. Compliance was established by counting the excess tablets at the end of the study.
The serum samples were frozen and then initially analyzed for total folate using the Immulite 2000 competitive binding assay, and later by microbiological assay using L. rhamnosus. Serum B12 was determined using the Immulite 2000 assay. This study and the following trials B and C were performed with approval by the Institutional Review Board of the University of South Alabama.

The conditions of data set [4]: Trial B.
Experimental: (§1) The 21 volunteers with a value below 25 nM serum folate at screening ranged between 20 to 44 years old.
The conditions of data set [5]: Trial B; microbiological assay.
Experimental: as §1
Data set [6] is classed as in vivo, women.
The subject of data set [7] is recurrent NTD. As to conditions: 4 mg/day; cited from earlier work.
Data set [8] has as its system NTD. As to conditions: 400 μg/d, cited from earlier work.
The conditions of data set [9]: cited from earlier work. This is another data set of the same source.
Data set [10] concerns heart defects. Particulars: periconceptional use; cited from earlier work.
Data set [11] has as its system cleft lip/palate. Particulars: periconceptual administration; cited from earlier work.
The nature of data set [12]: Trial A: serum B12 by Immulite 2000 assay. It is filed as in vivo, women. As to conditions: three daily 0.5 mg doses, by 72 hours, subjects (n=6) with screening values below 330 pg/mL. The method, then: Serum B12 was determined using the Immulite 2000 assay.
The average vitamin B12 levels specifically for those subjects (n=6) with screening values below 330 pg/mL are shown in FIG. 2 (dotted line). By 72 hours after initiation of the three doses, serum B12 increased on average by about 80 pg/mL, and then fell slightly. Levels below 200 pg/mL are considered to be deficient, and those between 200 and 350 pg/mL are generally considered to be low-normal. Data beyond day 5 are not available for this trial, since only one of those with sub-optimal B12 status volunteered to continue.

The nature of data set [13]: Trial B: serum B12. The format is in vivo, women. The source says: It is believed that this may be due to uptake of the plasma B12 into the tissues of the deficient or mildly deficient subjects. None the less, by day 12 nearly half of the subjects were still in the normal range.
[14] abbreviates: after 4 weeks of 800 μg (Brämswig et al.).

`Nc1nc2c(c(=O)[nH]1)N(C=O)C(CNc1ccc(C(=O)N[C@@H](CCC(=O)O)C(=O)O)cc1)CN2` (some centres unmarked) [5-formyl-tetrahydrofolate]: the “survival and malformations of knockout mice” value in data set [1] is “some of these mice survived, but were subject to malformations”.

`CN1c2c(nc(N)[nH]c2=O)NCC1CNc1ccc(C(=O)N[C@@H](CCC(=O)O)C(=O)O)cc1` (some centres unmarked) [5-methyltetrahydrofolate]: the “time to reach plateau in the plasma” value in data set [2] (400 μg/d, young women) is 12 weeks. For the same compound, the “survival and malformations of knockout mice” value in [1] was “some of these mice survived, but were subject to malformations”.

`CN1c2c(nc(N)[nH]c2=O)NC[C@@H]1CNc1ccc(C(=O)N[C@@H](CCC(=O)O)C(=O)O)cc1` [6S-5-MTHF, 5-methyl-6S-tetrahydrofolate]: in data set [3] (Trial A), the “number of subjects not reaching greater than 37 nM serum total folate by the second day” value is on record as “three” and the “percent of subjects not reaching greater than 37 nM serum total folate by the second day” value was 15%. Besides, in data set [3] (in vivo), the “total folate of all subjects by the fourth day” value is on record as “above 55 nM” and the “total folate of all subjects by the third day” value is recorded as “above 44 nM”. Moreover, the “average serum level maintained over the next two weeks” value in [4] (0.8 mg/d 6S-5-MTHF starting on day 4) is “higher than 66 nM”. Also, the “average serum 5-MTHF, day 5” value in data set [4] (48 hours after last 7.5 mg dose, 0.8 mg/d maintenance from day 4) is on record as 74 nM. Besides, the “average serum 5-MTHF, day 4” value in [4] (five 7.5 mg doses every 12 hours, 24 hours after last 7.5 mg dose) was determined as 98 nM. Further, the “total folate: women below 50 nM during the study” value in data set [5] is “only a single person was ever below 50 nM”.

Turning to `Nc1nc2ncc(CNc3ccc(C(=O)N[C@@H](CCC(=O)O)C(=O)O)cc3)nc2c(=O)[nH]1` [folic acid], in [6] (Trial C), the “number of subjects below 44 nM total folate by the third day” value is 9, the “number of subjects below 50 nM total folate by the fourth day” value is listed as 10 and the “percent of subjects failing to achieve greater than 37 nM serum total folate by the second day” value is 40%. The “number of subjects failing to achieve greater than 37 nM serum total folate by the second day” value in data set [6] (Trial C, of 20) is 8. Also, the “highest serum total folate in any measurement, single slow-responding subject” value in [6] (female, human, in vivo) was not above 32 nM. Moreover, in [7], the “recurrent NTD prevented compared to the control group” value is listed as 72%. For the same compound, the “NTD cases after treatment, southern region” value in data set [8] (10 per 10,000 births before intervention) was 6 per 10,000. In addition, the “NTD cases after treatment, northern region” value in data set [8] (48 per 10,000 births before intervention) is on record as 10 per 10,000. In data set [2] (setting [14]), the “average plasma folate level” value is listed as 50 nM. Further, the “average red cell folate level” value in [9] (setting [14]) is reported as 919 nM. Moreover, the “time of treatment to elevate red cell concentrations to 906 nM” value in data set [9] (daily dose of 800 μg) is 4.2±3.5 weeks. Moreover, the “decrease in the prevalence of heart defects” value in data set [10] is on record as 20%. For the same compound, the “reduction in recurrence of orofacial clefts (meta-analysis)” value in data set [11] is recorded as “two thirds”.

With cyanocobalamin, the “average increase of serum B12” value in data set [12] is “about 80 pg/mL”. The “rate of increase of serum B12” value in [13] (Trial B three daily 1.0 mg doses versus Trial A 0.5 mg doses) is listed as “considerably greater than observed with the 0.5 mg doses”. For the same compound, the “subjects with serum B12 still in the normal range by day 12” value in [13] (Trial B, after three daily 1.0 mg doses) is “nearly half”. Also, the “half life of fall of serum B12 after discontinuation” value in data set [13] (Trial B, after three daily 1.0 mg doses, approximate exponential) is “about 2%”. Further, in data set [13] (Trial B, three daily 1.0 mg doses), the “subjects with serum B12 in the normal range by day 4” value is 88%.
